This note sets out measurements from US20130089627A1, “METHOD FOR TREATING A CANCER CAUSED BY CANCER STEM CELLS” (NEW BELLUS ENTERPRISES CO., LTD., priority 2011, published 2013).

Experiment [1] relates to Lung adenocarcinoma CD133 positive cancer stem cells. In words: MTT cytotoxicity test, lung adenocarcinoma CD133 positive cancer stem cells. The format is cell-based. An excerpt: (§1) The principle of cytotoxic activity test (MTT assay) is that succinate dehydrogenase in the mitochondria of a living cell can reduce MTT (3-(4,5-dimethylthiazol-2-yl)-2,5-diphenyltetrazolium bromide), and blue-violet formazan was formed under reaction with cytochrome C. Generally, the amount of formazan generated is proportional to the activity of the mitochondria and the number of living cells. After adding dimethyl sulfoxide (DMSO) to dissolve formazan, the number of living cells can be estimated by the optical density (OD) value.
(§2) The definition of half maximal inhibitory concentration (IC50) is the concentration for survival rate of 50% under the reaction with drugs or compounds.
On the technique in general: Tetrazolium assays rely on reduction of a dye to a coloured formazan, in cell work by metabolically active cells.

Experiment [2] concerns human lung cancer stem cells (Lung CSC). In words: MTT cytotoxicity test, lung cancer stem cells. The format is cell-based. An excerpt:
(§3) The purpose of the present invention is to screen for the A. camphorata extracts with anti-cancer activity. MTT (3-(4,5-dimethylthiazol-2-yl)-2,5-diphenyltetrazolium bromide) assay was used to complete the cytotoxicity test. Human lung cancer stem cells (lung CSC), human Adult fibroblast-1 (AF-1), glioblastoma multiforme cancer stem cells (GBM CSC), human Adult fibroblast-2 (AF-2), head and neck squamous cell carcinoma cancer stem cells (HNSCC CSC), colorectal cancer stem cells (CRC CSC), as well as breast cancer stem cells (Breast CSC), hepatoma cancer stem cells (hepatoma CSC), leukemia cancer stem cells (leukemia CSC) and gastric cancer stem cells (Gastric CSC) are used in cell experiments of the present invention.
(§4) The principle of cytotoxic activity test (MTT assay) is that succinate dehydrogenase in the mitochondria of a living cell can reduce MTT (3-(4,5-dimethylthiazol-2-yl)-2,5-diphenyltetrazolium bromide), and blue-violet formazan was formed under reaction with cytochrome C. Generally, the amount of formazan generated is proportional to the activity of the mitochondria and the number of living cells. After adding dimethyl sulfoxide (DMSO) to dissolve formazan, the number of living cells can be estimated by the optical density (OD) value. […]

Another experiment has as its system cancer stem cells. The experiment can be described thus: MTT cytotoxicity tests of 4-acetyl-antroquinonol B, summary in words. The format is cell-based. Particulars: lung adenocarcinoma CD133 positive, oral, GBM, breast and colorectal cancer stem cells.
Description: as §1

Experiment [3] relates to Glioblastomas multiform cancer stem cells (GBM CSC). The experiment can be described thus: MTT cytotoxicity test, GBM cancer stem cells (subline not stated). The format is cell-based.
Description: as §3, §4

For experiment [4], the system named is colorectal cancer stem cells (CRC CSC). The experiment can be described thus: MTT cytotoxicity test, colorectal cancer stem cells. The format is cell-based.
Description: as §3, §4

Experiment [5] concerns oral cancer stem cells (Oral CSC). The experiment can be described thus: MTT cytotoxicity test, oral cancer stem cells. The format is cell-based.
Description: as §1, §2

In experiment [6] the test system is breast cancer stem cells (Breast CSC). In words: MTT cytotoxicity test, breast cancer stem cells. The format is cell-based.
Description: as §3, §4

Experiment [7] relates to colorectal cancer stem cells. In words: Co-administration with chemotherapy drugs, colorectal cancer stem cells. The format is cell-based.
Description: as §2
(§5) Cisplatin: cis-diammineplatinum(II) dichloride (Sigma-Aldrich, USA)
(§6) Taxol: Paclitaxel (Sigma-Aldrich, USA)
(§7) According to the pretested half maximal inhibitory concentration (IC50) of D1˜D5, different cancer stem cells were used to test the cytotoxic concentration for (1) the co-administration of A. camphorata extracts with the chemotherapy drug, Cisplatin; (2) the co-administration of A. camphorata extracts with the chemotherapy drug, Taxol.

The subject of a further experiment is breast cancer stem cells. The experiment can be described thus: Co-administration with chemotherapy drugs, breast cancer stem cells. The format is cell-based.
Description: as §2, §5, §6, §7

The test system of experiment [8] is Hepatoma cancer stem cells. In words: Co-administration with chemotherapy drugs, hepatoma cancer stem cells. The format is cell-based.
Description: as §2, §5, §6, §7

Experiment [9] has as its system Glioblastomas multiform cancer stem cells. In words: Co-administration with chemotherapy drugs, GBM cancer stem cells. The format is cell-based.
Description: as §2, §5, §6, §7

Experiment [10] relates to Head and neck squamous cell carcinoma cancer stem cells. In words: Co-administration with chemotherapy drugs, HNSCC cancer stem cells. The format is cell-based.
Description: as §2, §5, §6, §7

The test system of a further experiment is lung cancer stem cells. In words: Co-administration with chemotherapy drugs, lung cancer stem cells. The format is cell-based, human.
Description: as §2, §5, §6, §7

SMILES strings stand for the structures.

In general, IC50 refers to the concentration that inhibits the measured activity by half.

Regarding `COC1=C(OC)C(OC(C)=O)C(C/C=C(\C)CCC2(C)CCC(=O)O2)C(C)C1=O` (stereo not shown) [4-acetyl-antroquinonol B], the “half maximal inhibitory concentration (IC50) of 4-acetyl-antroquinonol B” value in experiment [1] was found to be 16.4 µg/mL; in experiment [2] it was 12.37 µg/mL; in [3] it was 18.2 µg/mL; in experiment [4], 9.72 µg/mL; in experiment [5] it was 14.37 µg/mL; in [6] it was 20.77 µg/mL. In addition, in the experiment with cancer stem cells, the “inhibitory effects on the growth of cancer stem cells (in words)” value was “effective inhibitory effects on the growth of cancer stem cells”.
For the compound `N.N.[Cl][Pt][Cl]` [Cisplatin, cis-diammineplatinum(II) dichloride], the “Cisplatin IC50” value in [7] amounted to 42.83 µg/mL; in the experiment on breast cancer stem cells it was 20.23 µg/mL; in experiment [8], 40.15 µg/mL; in experiment [9], 23.33 µg/mL; in experiment [10] it was 18.87 µg/mL; in the experiment with lung cancer stem cells, 17.98 µg/mL.
In the case of `CC(=O)O[C@H]1C(=O)[C@@]2(C)[C@H]([C@H](OC(=O)c3ccccc3)[C@]3(O)C[C@H](OC(=O)[C@H](O)[C@@H](NC(=O)c4ccccc4)c4ccccc4)C(C)=C1C3(C)C)[C@]1(OC(C)=O)CO[C@@H]1C[C@@H]2O` [Taxol, Paclitaxel], the IC50 in experiment [7] (read-out: Taxol IC50) amounted to 0.0317 µg/mL; in the experiment on breast cancer stem cells (read-out: Taxol IC50), 0.00983 µg/mL; in experiment [8] (read-out: Taxol IC50), 0.0335 µg/mL; in [9] (read-out: Taxol IC50) it was 0.0207 µg/mL; in [10] (read-out: Taxol IC50), 0.0102 µg/mL; with lung cancer stem cells (Homo sapiens, read-out: Taxol IC50) it was 0.0137 µg/mL.
